According to US20250057158A1 (priority 2021, published 2025):
Like-named read-outs stand apart in the source and are kept apart here.

Experiments:
[1] = tested on: soybeans; assay: Growth promoting ability, shoot weight of soybeans; assay type: in vivo, soybean; settings: untreated group 8.6 g; for shoot weight, soybeans (average): root zone treatment twice at one week intervals (valine 5 ml, 0.1%), two weeks after last treatment
Experimental: (§1) The growth of soybeans and cucumbers was observed by treatment with valine. One week after sowing in pots, root zone treatment of each plant was performed using 5 ml of valine at a concentration of 0.1%. The root zone treatment with valine was performed twice at one week intervals. Two weeks after the last treatment, a shoot of each treatment group was cut and weighed.

[2] = tested on: soybean Phytophthora stem and root rot (Phytophthora sojae); settings: treatment 7 days and 1 day before pathogen; for control value, soybean Phytophthora stem and root rot: from disease severity, vs untreated group; for disease severity (score 0 to 5), soybean Phytophthora stem and root rot: 7 days after pathogen, water control group 4.1
Experimental: (§2) A total of 3 crops (soybean, cucumber, lettuce) were tested against 3 pathogens (soybean Phytophthora stem and root rot, cucumber bacterial leaf blight, lettuce bacterial soft rot), and each plant was prepared in the same manner as Example 5.
(§3) From the disease severity investigated in this manner, a control value was calculated according to the following Equation.

[3] = tested on: Pathogenesis-related protein (PR) 1a promoter GUS fusion construct; assay: Expression of disease resistance marker gene PR1a through GUS activity; assay type: in vivo, Arabidopsis thaliana; settings: roots treated with 50 μl; observed 1 Dai to 4 Dai after pathogen treatment
[4] = tested on: cucumbers; assay: Growth promoting ability, shoot weight of cucumbers; assay type: in vivo, cucumber; settings: untreated group 31 g; for shoot weight, cucumbers (average): root zone treatment twice at one week intervals (valine 5 ml, 0.1%), two weeks after last treatment
Experimental: as §1

[5] = tested on: Phytophthora sojae; assay: Pot experiment, soybean Phytophthora stem and root rot (diseased area, control value); assay type: in vivo; settings: diseased area after 3 days, vs untreated group
[6] = tested on: Pseudomonas syringae pv. tomato DC3000 (Pst); assay type: in vivo; settings: Arabidopsis thaliana; for disease severity (score 0 to 5): water-treated group 4.6; for induced resistance against Pst (disease severity, statistical significance vs water-treated control): 50 μl of 0.1% amino acid to roots, Pst 7 days later, severity 7 days after pathogen
[7] = tested on: lettuce bacterial soft rot (Pectobacterium carotovorum pv. carotovora); assay: Optimal conditions, two treatments: lettuce bacterial soft rot (disease severity, control value); settings: treatment 7 days and 1 day before pathogen; for control value, lettuce bacterial soft rot: from disease severity, vs untreated group; for disease severity (score 0 to 5), lettuce bacterial soft rot: 48 hours after pathogen, water control group 4.2
Experimental: as §2, §3

[8] = tested on: Pectobacterium carotovorum pv. carotovora; assay: Pot experiment, lettuce bacterial soft rot (diseased area, control value); assay type: in vivo; settings: diseased area after 1 day, vs untreated group
[9] = tested on: Pseudomonas syringae pv. lachrymans; assay: Pot experiment, cucumber bacterial leaf blight (diseased area, control value); assay type: in vivo; settings: 5 ml spray (amino acid 0.1%) one day before inoculation, diseased area after 3 days, vs untreated group
[10] = tested on: Magnaporthe oryzae KI-1113a; assay type: in vivo; settings: pot; 5 ml spray (amino acid 0.1%) one day before inoculation; diseased area after 24 h dark plus 4 days; vs untreated group
[11] = tested on: Botrytis cinerea; assay: Pot experiment, tomato gray mold (diseased area, control value); assay type: in vivo; settings: diseased area after 3 days, vs untreated group
[12] = tested on: Soybean Phytophthora stem and root rot; settings: 7 days after disease treatment, NDVI 0.7 or more = healthy, untreated group 26%
Experimental: The induced resistance against Soybean Phytophthora stem and root rot was investigated using a hyperspectral camera and a visible light band camera. Plant preparation was carried out in the same manner as in Example 6, and 7 days after disease treatment, leaves were picked from the same position in each treatment group, and hyperspectral photographs were taken.
It was quantified by the normalized difference vegetation index (NDVI). The degree of diseased leaves in the entire leaf area was indicated from 0.1 to 0.9 and the number of the corresponding pixels was used. Generally, when the number is 0.7 or more, it is considered a healthy leaf.

[13] = tested on: Pst pathogen; assay type: in vivo, Pseudomonas syringae pv. tomato; settings: Arabidopsis thaliana; 0.1% amino acid; day 6 after Pst
[14] = tested on: Pcc pathogen; settings: Arabidopsis thaliana; 0.1% amino acid; day 3 after Pcc
[15] = valine 5 ml, 0.1%, root zone, twice

SMILES | control value, soybean Phytophthora stem and root rot [2] [%] | PR1a expression (GUS activity in leaf area) [3] | control value, soybean Phytophthora stem and root rot [5] [%] | control value, lettuce bacterial soft rot [7] [%] | control value, lettuce bacterial soft rot [8] [%] | control value, cucumber bacterial leaf blight [9] [%] | control value, rice blast [10] [%] | induced resistance against Pst (disease severity, statistical significance vs water-treated control) [6] | number of Pst pathogens vs untreated control group [13] | number of Pcc pathogen vs untreated control group [14] | number of Pcc pathogens vs BTH-treated group [14] | other results
CSC(=O)c1cccc2nnsc12 [BTH, benzo(1,2,3)-thiadiazole-7-carbothioic acid S-methyl ester, reference compound] | 46 | GUS was expressed in the leaf area | 10 | 17 | 10 | 9 | 9 |  |  |  |  | shoot weight, soybeans (average) [1]: 7.3 g; shoot weight, cucumbers (average) [4]: 26 g; disease severity (score 0 to 5) ([6]; Pst, 1 mM BTH): 3.7; control value, tomato gray mold [11]: 20%
N[C@@H](CC(=O)O)C(=O)O [aspartic acid] |  |  |  |  |  |  |  | induced the resistance against Pst |  |  |  | 
N[C@@H](CCC(=O)O)C(=O)O [glutamic acid] |  |  |  |  |  |  |  | induced the resistance against Pst |  |  |  | 
N[C@@H](Cc1c[nH]cn1)C(=O)O [histidine] |  |  |  |  |  |  |  | induced the resistance against Pst |  |  |  | 
CC[C@H](C)[C@H](N)C(=O)O [isoleucine] | 44 | GUS was expressed in the leaf area | 10 | 29 | 8 | 12 | 16 | induced the resistance against Pst | statistically significant reduction in the number of pathogens | reduction in the number of Pcc pathogen | reduction in the number of pathogens, as compared to the BTH-treated group | disease severity (score 0 to 5), soybean Phytophthora stem and root rot [2]: 2.3; healthy leaves (NDVI, hyperspectral camera) [12]: 46%; disease severity (score 0 to 5), lettuce bacterial soft rot [7]: 3
CC(C)C[C@H](N)C(=O)O [leucine] |  |  |  |  |  |  |  | induced the resistance against Pst |  |  |  | 
O=C(O)[C@@H]1CCCN1 [proline] |  | GUS was expressed in the leaf area |  |  |  |  |  | induced the resistance against Pst | statistically significant reduction in the number of pathogens | reduction in the number of Pcc pathogen | reduction in the number of pathogens, as compared to the BTH-treated group | 
CC(C)[C@H](N)C(=O)O [valine] | 73 | GUS was expressed in the leaf area | 15 | 48 | 13 | 17 | 13 | induced the resistance against Pst | statistically significant reduction in the number of pathogens | reduction in the number of Pcc pathogen | reduction in the number of pathogens, as compared to the BTH-treated group | shoot weight, soybeans (average) [1]: 11 g; shoot weight heavier than untreated group, soybeans [1, 15]: 2.4 g; disease severity (score 0 to 5), soybean Phytophthora stem and root rot [2]: 1.1; healthy leaves (NDVI, hyperspectral camera) [12]: 60%; shoot weight, cucumbers (average) [4]: 34 g; shoot weight heavier than untreated group, cucumbers [4, 15]: 3 g; disease severity (score 0 to 5) ([6]; Pst, 0.1% (0.95 mM) valine): 2.5; disease severity (score 0 to 5) ([6]; Pst, 0.5% valine): 2.4; overall disease severity in valine-treated groups ([6]; Pst, valine 0.5%, 0.1%, 0.05%, 0.01%, 0.005% and 0.001%, vs water-treated group): overall disease severity decreased; disease severity (score 0 to 5), lettuce bacterial soft rot [7]: 2.2
